Where two headings read alike, the source gives them in different places. Values belong to the compound of their own block, whether it stands above or below them.
How the values were obtained:
[1] = target: Y2R mutant Q130^3.32H (hY2R_eYFP_pVitro2) (human) (UniProt P49146)
[2] = target: wild-type human Y2R with C-terminal eYFP (hY2R_eYFP_pVitro2) (human) (UniProt P49146)
[3] = target: Y2R mutant Y110^2.64A (hY2R_eYFP_pVitro2) (human) (UniProt P49146)
[4] = target: Y2R mutant D292^6.59N (hY2R_eYFP_pVitro2) (human) (UniProt P49146)
Y2R = system: Y2R; design: method as in earlier work; details: ref Swanson, D.M. et al., Bioorg. Med. Chem. Lett. 21:5552-5556, 2011; read-out: Y2R affinity IC50; cited from earlier work
wild-type Y2R [5] = target: T1, wild-type Y2R (Homo sapiens, UniProt P49146); assay: Dose-dependent inhibition of NPY (0.3 nM)-induced IP accumulation; assay type: cell-based; details: read-out: pIC50 ± SEM, inhibition of NPY-induced IP accumulation (converted)
T1 construct: expressed in transfected cells; host or cells: HEK293
T1 sequence (P49146 1-381): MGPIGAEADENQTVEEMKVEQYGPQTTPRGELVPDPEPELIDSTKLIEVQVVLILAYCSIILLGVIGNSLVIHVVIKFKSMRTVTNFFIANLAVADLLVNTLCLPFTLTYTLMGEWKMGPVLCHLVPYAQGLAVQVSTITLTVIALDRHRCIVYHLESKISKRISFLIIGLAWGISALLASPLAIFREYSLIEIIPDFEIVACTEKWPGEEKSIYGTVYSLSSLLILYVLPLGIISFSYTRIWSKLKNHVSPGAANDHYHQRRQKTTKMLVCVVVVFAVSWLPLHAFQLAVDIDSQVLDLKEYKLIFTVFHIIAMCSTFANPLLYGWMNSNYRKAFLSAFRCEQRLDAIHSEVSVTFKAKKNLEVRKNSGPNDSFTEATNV
Method: To determine the contribution of residues to antagonist binding, IP-One accumulation assays (Cisbio, Codolet, France) were performed. […] The cells were then reseeded into white 384-well microplates (Greiner Bio-One, Kremsmünster, Austria) at a density of 15,000 cells per well and grown for additional 24 h. […] Three microliters of both solutions were added, and the cells were incubated on a tumbler for 60 min.

Y2R mutant Q130^3.32H = target: T2, Y2R mutant Q130^3.32H (Homo sapiens, UniProt P49146, Q130H); assay: NPY-induced IP accumulation (IP-One), mutant; assay type: cell-based; details: 1 μM antagonist
T2 construct: expressed in transfected cells; host or cells: HEK293
Method: The plasmid hY2R_eYFP_pVitro2 encoding the WT Y2R and a fluorophore for investigating the receptor localization was used as template for the generation of receptor point mutations as previously described. Mutagenesis PCR was performed using the Phusion High-Fidelity Polymerase (Thermo Fisher Scientific, Waltham, MA, USA). […] The preparations of the plasmid DNA were performed using the Wizard plus Mini or Midi DNA purification kit (Promega, Madison, WI, USA).
(§1) To determine the contribution of residues to antagonist binding, IP-One accumulation assays (Cisbio, Codolet, France) were performed. HEK293 cells were seeded into six-well plates and transiently cotransfected with 3200 ng of receptor plasmid DNA and 800 ng of the chimeric G protein (Gα∆6qi4myr) to redirect the Gαi signaling pathway to the Gαq phospholipase C pathway. Transient transfection was carried out using Metafectene as transfection reagent according to the manufacturer’s protocol (Biontex, Munich, Germany) over night. The cells were then reseeded into white 384-well microplates (Greiner Bio-One, Kremsmünster, Austria) at a density of 15,000 cells per well and grown for additional 24 h.
All dilutions were performed in HBSS containing 20 mM LiCl (stimulation buffer) and DMSO with a final concentration of 0.01%.
To determine the amount of cellular IPs, the FRET acceptor (IP1-d2) and the FRET donor (anti-IP1-Cryptate) were reconstituted and diluted in lysis and detection buffer (1:20) as described in the manufacturer’s protocol. Three microliters of both solutions were added, and the cells were incubated on a tumbler for 60 min.

NPY receptors = details: cited from earlier work
wild-type Y2R [6] = target: T1, wild-type Y2R; assay: NanoBRET-based binding assay (K18(TAMRA)-NPY); details: read-out: pIC50 ± SEM, NanoBRET binding (converted)
Method: (§2) For this purpose, a Nanoluciferase[44] (Promega, Madison, WO, USA) followed by a flexible […] terminus of the receptor in an Y2-eYFP_N1 vector[45]. The Nanoluciferase replaced the similarly sized N-terminal T4L fusion in the crystallization construct. To facilitate correct expression of this large N-terminal domain and export to the plasma membrane, a signal sequence of human interleukin 6 ([…]) was used[44]. HEK293 cells were transiently transfected with 8 μg of the corresponding vectors per T75 flask using MetafectenePro (Biontex) following the manufacturer's instructions. Twenty-four hours post transfection, the cells were harvested in PBS (-Ca^2+; -Mg^2+) and frozen (-80 °C). The membranes were prepared as described previously. Briefly, the cells were lysed in a hypotonic TRIS buffer (50 mM Tris-HCl, pH 7.5 and 50 μM Pefabloc SC) and homogenized using a manual dounce homogenizer for 15 times. Nuclei and cell debris was removed by centrifugation at 820 × g for 10 min (4 °C), and the microsomal membranes in the supernatant were collected by centrifugation at 20,000 × g for 60 min (4 °C). […] The total protein amount was determined by a Bradford assay. The membrane preparations were stored in aliquots at -80 °C. […] Directly before the measurement, 10 μl coelenterazine H in HBSS/HEPES was added to a final concentration of 4 μM. […] The BRET ratio was calculated by the ratio of F/L, and corrected by the background values. The IC50 values were determined using a three-parameter logistic fit in the GraphPad Prism 5 software (GraphPad Software, San Diego, CA, USA).

[7] = target: T3, modified Y2R used for crystallization without N-terminal T4L (Construct_no T4L) (Homo sapiens, UniProt P49146, DEL251-256/H149Y/S280C); assay: NanoBRET-based binding assay (K18(TAMRA)-NPY); details: 300 nM K18(TAMRA)-NPY
T3 construct: eYFP (from the vector name) (C); expressed in transfected cells; host or cells: HEK293 (membrane preparations)
Method: as §2

[8] = target: T4, Y2R crystallization construct without flavodoxin in ICL3 (construct_no flavodoxin) (Homo sapiens, UniProt P49146, H149Y/S280C); assay: Dose-dependent inhibition of NPY (0.3 nM)-induced IP accumulation; assay type: cell-based; details: read-out: pIC50 ± SEM, inhibition of NPY-induced IP accumulation (converted)
T4 construct: expressed in transfected cells; host or cells: HEK293
Method: as §1, with “([…])” for “(Gα∆6qi4myr)”, “manufacturer's” for “manufacturer’s”, “h. […] The cells were stimulated at 37 °C and 5% CO2 in humidified atmosphere for 90 min. The exact value of the effective concentration (ECx) at the day of the assay was determined by control curves in the absence of antagonist. To determine the amount of cellular IPs, the FRET acceptor (IP1-d2) and the FRET donor (anti-IP1-Cryptate) were reconstituted and diluted in lysis and detection buffer (1:20) as described in the manufacturer's protocol. Three microliters of both solutions were added, and the cells were incubated on a tumbler for 60 min.” for “h.”

T3 sequence (P49146 with tags, fused parts or gaps H149Y/DEL251-256/S280C): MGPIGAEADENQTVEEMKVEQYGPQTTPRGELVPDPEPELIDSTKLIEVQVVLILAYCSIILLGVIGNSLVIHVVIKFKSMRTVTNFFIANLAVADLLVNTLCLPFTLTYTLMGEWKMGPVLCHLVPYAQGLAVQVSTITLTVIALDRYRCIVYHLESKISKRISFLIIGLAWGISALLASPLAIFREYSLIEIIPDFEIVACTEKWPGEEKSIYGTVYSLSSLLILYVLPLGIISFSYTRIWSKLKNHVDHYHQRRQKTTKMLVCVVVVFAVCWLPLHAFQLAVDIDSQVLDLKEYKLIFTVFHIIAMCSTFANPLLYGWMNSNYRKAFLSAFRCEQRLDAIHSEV
T4 sequence (P49146 1-353 H149Y/S280C): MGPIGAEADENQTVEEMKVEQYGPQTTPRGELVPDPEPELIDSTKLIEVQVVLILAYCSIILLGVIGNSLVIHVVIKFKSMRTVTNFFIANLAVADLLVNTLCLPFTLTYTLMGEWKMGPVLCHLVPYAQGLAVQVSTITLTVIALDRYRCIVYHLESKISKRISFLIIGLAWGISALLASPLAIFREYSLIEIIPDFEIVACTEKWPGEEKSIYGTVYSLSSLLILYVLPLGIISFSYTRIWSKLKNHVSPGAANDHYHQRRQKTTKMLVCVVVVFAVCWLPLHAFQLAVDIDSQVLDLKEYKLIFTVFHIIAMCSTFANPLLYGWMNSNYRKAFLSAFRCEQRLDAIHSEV
T2 sequence (P49146 whole entry Q130H): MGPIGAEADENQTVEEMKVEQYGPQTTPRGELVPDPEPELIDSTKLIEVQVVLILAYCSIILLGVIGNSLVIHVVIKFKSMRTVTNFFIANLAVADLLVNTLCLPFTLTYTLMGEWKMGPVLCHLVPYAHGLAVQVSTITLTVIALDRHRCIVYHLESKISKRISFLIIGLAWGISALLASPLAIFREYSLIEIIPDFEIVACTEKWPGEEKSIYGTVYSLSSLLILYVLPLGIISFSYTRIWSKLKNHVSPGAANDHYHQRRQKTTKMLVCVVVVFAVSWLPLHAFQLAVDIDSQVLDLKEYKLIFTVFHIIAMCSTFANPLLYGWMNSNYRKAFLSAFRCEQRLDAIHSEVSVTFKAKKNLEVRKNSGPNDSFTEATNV

- fold change of the EC50 of NPY-induced receptor signaling (IP accumulation) against the wild-type Y2R [1]: 132 fold
- EC50 of NPY-induced IP accumulation (IP-One assay, HEK293 cells with chimeric G protein) [2]: 0.06 nM
- EC50 of NPY-induced IP accumulation (IP-One assay, HEK293 cells with chimeric G protein) [3]: 1.8 nM
- fold change of the EC50 of NPY in triggering Y2R signaling (IP accumulation) against the wild-type Y2R [4]: 233 fold
Compound: neuropeptide Y (NPY) (from UniProt P01303 29-64)

Compound: CCN(CC)C(=O)C(c1ccccc1)N1CCN(c2ccc(NC(=O)c3ccccc3-c3cccnc3)cc2F)CC1 (single isomer, unassigned) [S-isomer]
- IC50 (Y2R): 14 ± 3 nM

- IC50 (wild-type Y2R [5]): 47.9 nM
- Antagonistic activity compared to WT (in words) (Y2R mutant Q130^3.32H): increased antagonistic activity
- IC50 (wild-type Y2R [6]): 1.29 nM
- IC50 ([7]; read-out: IC50, NanoBRET binding): 0.7 nM
- IC50 ([7]; read-out: pIC50 ± SEM, NanoBRET binding (converted)): 0.676 nM
- IC50 [8]: 60.3 nM
Compound: CCN(CC)C(=O)C(c1ccccc1)N1CCN(c2ccc(NC(=O)c3ccccc3-c3cccnc3)cc2F)CC1 (stereo not shown) [JNJ-31020028, N-(4-{4-[2-(diethylamino)-2-oxo-1-phenylethyl]piperazin-1-yl}-3-fluorophenyl)-2-pyridin-3-ylbenzamide]
- Higher binding affinity to Y2R over the other NPY receptors (NPY receptors): over 100 fold

Compound: CCN(CC)C(=O)C(c1ccccc1)N1CCN(c2ccc(NC(=O)c3ccccc3-c3cccnc3)cc2F)CC1 (single isomer, unassigned) [R-isomer]
- IC50 (Y2R): 9 ± 2 nM
